Molecular target: T1, human iGluR4 (Homo sapiens, UniProt P48058)
T1 construct: expressed in transfected cells
Test: Whole-cell voltage clamp electrophysiology of AMPA receptor potentiation in HEK293 cells expressing human iGluR4
Type: cell-based
Conditions: HEK293 cells stably expressing human iGluR4; voltage-clamped at −60 mV; 1 mM glutamate; fit to Hill equation; read-out: activity (EC50 value, potency of potentiation of the current evoked by glutamate)
From the text: HEK293 cells stably expressing human iGluR4 (obtained as described in European Patent Application Publication No. EP-A1-0583917) are used in the electrophysiological characterization of AMPA receptor potentiators. The extracellular recording solution contains (in mM): 140 NaCl, 5 KCl, 10 HEPES, 1 MgCl2, 2 CaCl2, 10 glucose, pH=7.4 with NaOH, 295 mOsm kg-1. The intracellular recording solution contains (in mM): 140 CsCl, 1 MgCl2, 10 HEPES, (N-[2-hydroxyethyl]piperazine-N1-[2-ethanesulfonic acid]) 10 EGTA (ethylene-bis(oxyethylene-nitrilo)tetraacetic acid), pH=7.2 with CsOH, 295 mOsm kg-1. With these solutions, recording pipettes have a resistance of 2-3 MΩ. […] Responses to 1 mM glutamate are then determined in the presence of test compound. […]
In order to determine the potency of the test compound, the concentration of the test compound, both in the bathing solution and co-applied with glutamate, is increased in half log units until the maximum effect is seen. […] Reversibility of test compound activity is determined by assessing control glutamate 1 mM responses. Once the control responses to the glutamate challenge are re-established, the potentiation of these responses by 100 μM cyclothiazide is determined by its inclusion in both the bathing solution and the glutamate-containing solution. In this manner, the efficacy of the test compound relative to that of cyclothiazide can be determined. […]

T1 sequence (P48058 22-902 limits assumed): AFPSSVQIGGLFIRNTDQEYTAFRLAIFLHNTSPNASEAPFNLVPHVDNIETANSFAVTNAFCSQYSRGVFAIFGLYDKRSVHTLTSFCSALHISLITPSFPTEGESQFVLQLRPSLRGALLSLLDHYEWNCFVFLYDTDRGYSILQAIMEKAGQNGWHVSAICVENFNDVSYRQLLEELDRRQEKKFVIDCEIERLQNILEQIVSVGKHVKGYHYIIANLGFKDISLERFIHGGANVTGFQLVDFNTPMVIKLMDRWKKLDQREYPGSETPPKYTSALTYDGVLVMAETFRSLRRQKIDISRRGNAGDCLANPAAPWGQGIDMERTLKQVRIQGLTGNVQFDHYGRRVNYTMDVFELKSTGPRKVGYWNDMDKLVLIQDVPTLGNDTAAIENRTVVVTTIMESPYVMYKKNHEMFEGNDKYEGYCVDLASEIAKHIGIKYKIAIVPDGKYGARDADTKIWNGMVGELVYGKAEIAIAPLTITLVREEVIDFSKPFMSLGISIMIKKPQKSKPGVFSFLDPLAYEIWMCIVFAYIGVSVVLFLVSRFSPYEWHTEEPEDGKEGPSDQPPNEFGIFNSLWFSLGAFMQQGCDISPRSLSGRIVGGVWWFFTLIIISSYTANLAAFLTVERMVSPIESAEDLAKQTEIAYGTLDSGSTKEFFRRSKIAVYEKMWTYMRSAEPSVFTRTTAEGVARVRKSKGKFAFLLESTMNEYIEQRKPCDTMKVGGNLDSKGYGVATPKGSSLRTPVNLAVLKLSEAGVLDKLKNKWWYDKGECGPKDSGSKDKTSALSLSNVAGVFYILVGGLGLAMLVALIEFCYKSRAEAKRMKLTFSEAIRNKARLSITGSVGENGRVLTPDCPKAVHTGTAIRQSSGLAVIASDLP

Molecule `CC(C)S(=O)(=O)NC[C@H](C)c1ccc(-c2ccc(C(=O)O)cc2C#N)cc1` [Example 1, 1-(R)-2-Cyano-4′-[1-methyl-2-(propane-2-sulfonylamino)-ethyl]-biphenyl-4-carboxylic acid] has an EC50 of 188 ± 15.3 nM.

From patent US8097652B2, “AMPA receptor potentiators” (Eli Lilly and Company, priority 2006, dated 2012)
